Laboratory results published in publication PMC5797143, “Epigenetic modulation of inflammation and synaptic plasticity promotes resilience against stress in mice” (Nature Communications, 2018).

Experiments:
[1] = molecular target: T1, human Ether-à-go-go-related gene (hERG) (Homo sapiens, UniProt Q12809); assay: In vitro cardiotoxicity, hERG inhibition (IonWorks HT, CHO cells); format: cell-based; conditions: CHO cells stably transfected with hERG
T1 construct: expressed in transfected cells; host or cells: CHO cells, stably transfected
T1 sequence (Q12809 whole entry): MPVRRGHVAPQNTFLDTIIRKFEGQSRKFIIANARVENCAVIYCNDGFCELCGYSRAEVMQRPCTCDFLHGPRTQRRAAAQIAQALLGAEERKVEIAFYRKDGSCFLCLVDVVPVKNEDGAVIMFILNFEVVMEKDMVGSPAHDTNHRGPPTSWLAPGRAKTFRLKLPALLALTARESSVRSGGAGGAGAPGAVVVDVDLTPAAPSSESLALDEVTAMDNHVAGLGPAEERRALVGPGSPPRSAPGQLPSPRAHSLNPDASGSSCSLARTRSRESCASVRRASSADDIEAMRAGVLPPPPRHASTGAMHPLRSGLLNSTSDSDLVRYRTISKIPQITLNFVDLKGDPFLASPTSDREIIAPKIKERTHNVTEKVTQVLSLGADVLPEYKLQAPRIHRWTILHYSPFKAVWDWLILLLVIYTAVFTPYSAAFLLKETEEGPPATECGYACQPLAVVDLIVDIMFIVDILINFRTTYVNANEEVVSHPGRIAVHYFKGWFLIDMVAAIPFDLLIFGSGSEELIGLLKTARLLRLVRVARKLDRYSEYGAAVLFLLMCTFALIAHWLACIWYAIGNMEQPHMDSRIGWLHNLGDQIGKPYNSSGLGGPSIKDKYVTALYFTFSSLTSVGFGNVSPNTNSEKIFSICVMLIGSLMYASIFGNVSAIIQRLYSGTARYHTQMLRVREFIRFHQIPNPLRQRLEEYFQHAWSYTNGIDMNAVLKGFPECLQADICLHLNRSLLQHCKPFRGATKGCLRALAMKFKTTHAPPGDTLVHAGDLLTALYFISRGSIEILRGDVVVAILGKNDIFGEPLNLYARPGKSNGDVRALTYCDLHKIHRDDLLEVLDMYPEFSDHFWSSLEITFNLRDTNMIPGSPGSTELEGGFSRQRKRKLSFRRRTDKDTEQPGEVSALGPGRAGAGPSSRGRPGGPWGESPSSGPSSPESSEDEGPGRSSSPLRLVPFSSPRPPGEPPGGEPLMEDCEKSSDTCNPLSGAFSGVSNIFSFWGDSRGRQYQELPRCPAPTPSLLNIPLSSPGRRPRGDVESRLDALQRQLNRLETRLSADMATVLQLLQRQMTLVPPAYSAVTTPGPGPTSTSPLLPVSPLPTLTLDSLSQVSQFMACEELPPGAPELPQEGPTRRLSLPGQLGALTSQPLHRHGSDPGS
Procedure: Cardiotoxicity was assessed using CHO cells stably transfected with the hERG using the IonWorks HT instrument (Molecular Devices Corporation), which automatically performs electrophysiology measurements in 48 single cells simultaneously in a specialized 384-well plate (PatchPlate)[42]. A single-cell suspension was added to the wells of a PatchPlate to form an electrical seal at the bottom and pre-compound currents were recorded. Various concentrations of Mal-gluc or DHCA were added to the cells in four replicates for 5 min and post-compound currents were then recorded. Post-compound currents are then expressed as a percentage of pre-compound currents and plotted against concentration for each compound and IC50 was calculated.

[2] = Plasma stability, mouse plasma; format: in vitro ADME; conditions: 37 °C
Procedure: (§1) Compound stability in mouse and human plasma and in mouse brain homogenate were conducted, [45]. Specifically, Mal-gluc or DHCA was incubated in duplicate with plasma at 37 °C and samples were taken at various time points and mixed with three volumes of ice-cold Stop Solution (methanol containing propranolol, diclofenac, or other internal standard). Samples were centrifuged to remove precipitated protein, and the supernatants were analyzed by LC/MS/MS to quantitate for remaining test compound. Data are converted to percentage remaining by dividing by the time zero concentration value. Data are fit to a first-order decay model to determine half-life. Plasma protein binding were conducted using both mouse and human plasma.

[3] = Brain homogenate stability; format: in vitro ADME
Procedure: as §1

[4] = molecular target: T2, 5-HT1A (serotonin receptor) (Homo sapiens, UniProt P08908); assay: Radioligand binding assay; conditions: 10 µM; HEK membrane fractions; quadruplicate
T2 construct: purchased NIMH Psychoactive Drug Screening Program (PDSP)
T2 sequence (P08908 whole entry): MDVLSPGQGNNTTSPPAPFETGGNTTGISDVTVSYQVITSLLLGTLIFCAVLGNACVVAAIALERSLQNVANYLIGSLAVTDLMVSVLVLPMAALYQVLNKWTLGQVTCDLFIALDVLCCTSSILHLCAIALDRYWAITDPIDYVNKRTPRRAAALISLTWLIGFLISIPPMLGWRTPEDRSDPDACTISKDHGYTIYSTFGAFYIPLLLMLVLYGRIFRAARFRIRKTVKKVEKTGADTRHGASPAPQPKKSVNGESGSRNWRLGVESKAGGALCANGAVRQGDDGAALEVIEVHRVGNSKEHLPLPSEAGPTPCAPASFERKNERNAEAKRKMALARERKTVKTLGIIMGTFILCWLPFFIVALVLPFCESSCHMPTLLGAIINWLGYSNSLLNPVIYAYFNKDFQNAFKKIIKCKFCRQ
Procedure: (§2) Radioligand binding assays were performed as previously described. Briefly, crude membrane fractions prepared from a stable HEK cell line expressing recombinant receptors were mixed with a radiolabeled specific ligand and 10 µM of competitor compound (DHCA, Mal-gluc, or non-specific ligand). The percentage of radioligand binding was subsequently measured.

[5] = molecular target: T3, 5-HT2A (serotonin receptor) (Homo sapiens, UniProt P28223); assay: Radioligand binding assay; conditions: 10 µM; HEK membrane fractions; quadruplicate
T3 construct: purchased NIMH Psychoactive Drug Screening Program (PDSP)
T3 sequence (P28223 whole entry): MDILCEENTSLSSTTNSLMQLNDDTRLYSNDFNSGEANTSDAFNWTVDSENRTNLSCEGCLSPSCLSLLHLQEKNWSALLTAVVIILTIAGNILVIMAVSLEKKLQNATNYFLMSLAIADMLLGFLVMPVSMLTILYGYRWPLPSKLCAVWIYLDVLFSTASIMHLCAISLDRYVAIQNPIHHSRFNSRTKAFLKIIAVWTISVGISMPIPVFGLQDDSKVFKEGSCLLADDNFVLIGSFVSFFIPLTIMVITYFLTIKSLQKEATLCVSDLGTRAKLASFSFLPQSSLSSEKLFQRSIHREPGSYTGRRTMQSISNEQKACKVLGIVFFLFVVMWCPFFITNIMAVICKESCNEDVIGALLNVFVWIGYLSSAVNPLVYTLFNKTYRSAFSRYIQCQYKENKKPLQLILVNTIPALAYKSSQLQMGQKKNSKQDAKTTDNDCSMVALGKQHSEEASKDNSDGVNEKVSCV
Procedure: as §2

[6] = molecular target: T4, 5-HT6 (serotonin receptor) (Homo sapiens, UniProt P50406); assay: Radioligand binding assay; conditions: 10 µM; HEK membrane fractions; quadruplicate
T4 construct: purchased NIMH Psychoactive Drug Screening Program (PDSP)
T4 sequence (P50406 whole entry): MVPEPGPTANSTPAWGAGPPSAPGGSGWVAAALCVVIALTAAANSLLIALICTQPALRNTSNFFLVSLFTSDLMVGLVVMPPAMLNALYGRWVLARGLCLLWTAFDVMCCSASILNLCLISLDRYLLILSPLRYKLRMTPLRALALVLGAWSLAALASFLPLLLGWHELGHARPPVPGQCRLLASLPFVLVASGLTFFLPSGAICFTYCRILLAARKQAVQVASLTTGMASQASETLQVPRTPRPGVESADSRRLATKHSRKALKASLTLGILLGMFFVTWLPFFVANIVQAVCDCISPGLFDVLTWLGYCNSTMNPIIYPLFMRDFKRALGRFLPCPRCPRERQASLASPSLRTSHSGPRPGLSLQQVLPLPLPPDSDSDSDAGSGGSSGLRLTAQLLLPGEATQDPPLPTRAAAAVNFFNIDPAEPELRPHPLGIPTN
Procedure: as §2

[7] = molecular target: T5, 5-HT7 (serotonin receptor) (Homo sapiens, UniProt P34969); assay: Radioligand binding assay; conditions: 10 µM; HEK membrane fractions; quadruplicate
T5 construct: purchased NIMH Psychoactive Drug Screening Program (PDSP)
Procedure: as §2

[8] = molecular target: T6, Alpha1B (alpha adrenergic receptor) (Homo sapiens, UniProt P35368); assay: Radioligand binding assay; conditions: 10 µM; HEK membrane fractions; quadruplicate
T6 construct: purchased NIMH Psychoactive Drug Screening Program (PDSP)
T6 sequence (P35368 whole entry): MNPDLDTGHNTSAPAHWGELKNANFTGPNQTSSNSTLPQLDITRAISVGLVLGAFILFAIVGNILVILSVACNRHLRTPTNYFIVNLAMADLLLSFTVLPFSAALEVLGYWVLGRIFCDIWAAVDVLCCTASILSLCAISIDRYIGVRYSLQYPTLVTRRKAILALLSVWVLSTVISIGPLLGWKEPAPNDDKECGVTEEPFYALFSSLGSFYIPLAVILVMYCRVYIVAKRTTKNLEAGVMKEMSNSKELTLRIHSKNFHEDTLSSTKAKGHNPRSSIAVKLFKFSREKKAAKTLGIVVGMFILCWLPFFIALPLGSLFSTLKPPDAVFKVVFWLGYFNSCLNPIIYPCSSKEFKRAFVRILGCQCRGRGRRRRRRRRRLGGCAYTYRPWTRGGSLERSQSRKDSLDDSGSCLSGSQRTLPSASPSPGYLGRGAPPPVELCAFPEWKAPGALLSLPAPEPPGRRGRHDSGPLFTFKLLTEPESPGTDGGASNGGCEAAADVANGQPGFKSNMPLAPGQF
Procedure: as §2

[9] = molecular target: T7, Alpha2C (alpha adrenergic receptor) (Homo sapiens, UniProt P18825); assay: Radioligand binding assay; conditions: 10 µM; HEK membrane fractions; quadruplicate
T7 construct: purchased NIMH Psychoactive Drug Screening Program (PDSP)
T7 sequence (P18825 whole entry): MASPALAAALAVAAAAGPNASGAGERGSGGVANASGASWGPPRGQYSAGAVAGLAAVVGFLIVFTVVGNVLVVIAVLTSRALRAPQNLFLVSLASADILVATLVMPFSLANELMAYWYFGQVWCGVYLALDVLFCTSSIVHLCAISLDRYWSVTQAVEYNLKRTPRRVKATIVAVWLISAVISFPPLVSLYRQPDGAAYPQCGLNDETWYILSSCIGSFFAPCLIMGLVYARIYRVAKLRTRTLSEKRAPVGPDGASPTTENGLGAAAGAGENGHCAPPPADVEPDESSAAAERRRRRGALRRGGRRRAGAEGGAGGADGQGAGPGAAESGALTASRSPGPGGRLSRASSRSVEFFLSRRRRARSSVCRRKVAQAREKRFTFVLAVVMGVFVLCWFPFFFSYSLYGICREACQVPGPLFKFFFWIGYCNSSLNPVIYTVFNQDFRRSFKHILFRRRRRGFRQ
Procedure: as §2

[10] = molecular target: T8, D1 (dopamine receptor) (Homo sapiens, UniProt P21728); assay: Radioligand binding assay; conditions: 10 µM; HEK membrane fractions; quadruplicate
T8 construct: purchased NIMH Psychoactive Drug Screening Program (PDSP)
T8 sequence (P21728 whole entry): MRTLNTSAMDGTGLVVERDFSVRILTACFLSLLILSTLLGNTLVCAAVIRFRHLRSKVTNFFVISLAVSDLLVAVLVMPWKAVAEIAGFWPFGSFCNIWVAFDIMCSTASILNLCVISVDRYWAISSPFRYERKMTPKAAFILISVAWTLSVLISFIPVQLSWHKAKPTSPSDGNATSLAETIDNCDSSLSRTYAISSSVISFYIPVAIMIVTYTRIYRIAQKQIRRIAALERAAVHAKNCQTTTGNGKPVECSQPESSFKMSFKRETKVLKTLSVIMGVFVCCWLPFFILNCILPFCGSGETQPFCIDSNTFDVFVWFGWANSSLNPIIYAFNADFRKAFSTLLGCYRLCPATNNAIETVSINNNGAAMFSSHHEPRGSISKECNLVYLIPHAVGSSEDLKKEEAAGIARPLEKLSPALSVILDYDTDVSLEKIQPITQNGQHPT
Procedure: as §2

[11] = molecular target: T9, D5 (dopamine receptor) (Homo sapiens, UniProt P21918); assay: Radioligand binding assay; conditions: 10 µM; HEK membrane fractions; quadruplicate
T9 construct: purchased NIMH Psychoactive Drug Screening Program (PDSP)
T9 sequence (P21918 whole entry): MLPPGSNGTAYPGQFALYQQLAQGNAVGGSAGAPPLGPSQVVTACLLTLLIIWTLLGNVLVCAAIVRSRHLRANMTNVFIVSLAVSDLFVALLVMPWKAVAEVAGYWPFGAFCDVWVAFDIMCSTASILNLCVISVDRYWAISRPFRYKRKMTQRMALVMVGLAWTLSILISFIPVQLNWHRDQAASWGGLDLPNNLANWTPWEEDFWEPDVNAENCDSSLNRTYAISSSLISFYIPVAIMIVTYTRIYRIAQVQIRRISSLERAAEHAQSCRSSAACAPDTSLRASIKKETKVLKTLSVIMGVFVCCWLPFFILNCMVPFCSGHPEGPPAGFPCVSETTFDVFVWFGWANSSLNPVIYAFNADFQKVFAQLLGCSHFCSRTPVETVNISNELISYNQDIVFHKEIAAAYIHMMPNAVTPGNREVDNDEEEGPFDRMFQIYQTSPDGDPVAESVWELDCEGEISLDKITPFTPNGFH
Procedure: as §2

[12] = molecular target: T10, NET (norepinephrine transporter) (Homo sapiens, UniProt P23975); assay: Radioligand binding assay; conditions: 10 µM; HEK membrane fractions; quadruplicate
T10 construct: purchased NIMH Psychoactive Drug Screening Program (PDSP)
T10 sequence (P23975 whole entry): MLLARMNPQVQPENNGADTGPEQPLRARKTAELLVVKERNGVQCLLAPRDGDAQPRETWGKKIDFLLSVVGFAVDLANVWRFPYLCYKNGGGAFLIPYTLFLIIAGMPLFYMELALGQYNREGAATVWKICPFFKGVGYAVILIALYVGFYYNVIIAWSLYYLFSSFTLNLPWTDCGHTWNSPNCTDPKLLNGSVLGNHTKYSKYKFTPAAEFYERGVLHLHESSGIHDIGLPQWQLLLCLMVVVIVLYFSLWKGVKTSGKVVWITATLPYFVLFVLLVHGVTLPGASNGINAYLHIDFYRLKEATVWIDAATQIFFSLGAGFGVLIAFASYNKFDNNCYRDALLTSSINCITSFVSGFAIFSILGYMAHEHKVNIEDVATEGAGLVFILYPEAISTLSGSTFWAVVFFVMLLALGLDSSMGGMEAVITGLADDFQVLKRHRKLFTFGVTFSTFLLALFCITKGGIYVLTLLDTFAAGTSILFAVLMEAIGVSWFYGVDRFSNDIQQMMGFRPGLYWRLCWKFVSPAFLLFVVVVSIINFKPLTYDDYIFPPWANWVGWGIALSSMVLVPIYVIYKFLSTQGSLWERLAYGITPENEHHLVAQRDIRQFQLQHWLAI
Procedure: as §2

[13] = test system: C57BL/6 mice subjected to RSDS; assay: RSDS, prophylactic treatment; format: in vivo, mouse; conditions: 5 mg/kg-BW/day DHCA or 500 ng/kg-BW/day Mal-gluc alone prior to RSDS
Procedure: To test the efficacy of BDPP in promoting resilience in stress-mediated depression, we treated C57BL/6 male mice with BDPP or vehicle for 2 weeks prior to and throughout RSDS and then performed social avoidance/interaction (SI) testing (Fig. 1a).
Based on the dose–response studies, we chose 5 mg/kg-BW/day DHCA and 500 ng/kg-BW/day Mal-gluc for the preclinical studies. We tested the prophylactic effect by treating mice with a mixture of DHCA/Mal-gluc for 2 weeks prior to and throughout RSDS (Fig. 3c). […] Following SI testing, mice were subjected to a sucrose preference test to evaluate the treatment effect on stress-induced anhedonia.
Male C57BL/6 mice (8-week-old) were randomly grouped into two groups: one group received regular drinking water; the other group was treated with BDPP composed of GSPE, RESV and CGJ, delivered through their drinking water, starting 2 weeks prior to RSDS and throughout RSDS and SI testing. The calculated daily intake of GSPE was 200 mg/kg body weight (BW), RESV was 300 mg/kg BW and CGJ was 1 ml/day.
To facilitate the follow-up sucrose preference test, the delivery of the drinking solution was through two 50-ml tubes with sipper top for each cage, starting from the day of initiation of treatment and the two tubes were regularly switched during the treatment. In parallel control studies, mice received similar treatment but were not subjected to RSDS. For therapeutic studies, susceptible mice (SI <0.8) were identified and randomly grouped into two groups either treated with vehicle or DHCA/Mal-gluc for 2 weeks. Mice were subjected to SI, sucrose preference, and splash testing. For testing the therapeutic efficacy of Imipramine, susceptible mice were treated with Imipramine (20 mg/kg-BW/day, i.p.) for 34 days. On day 35, mice were tested for SI 15–20 min after the last injection. […]
All social interaction (SI) tests were performed under red-light conditions. […] Their movements were automatically monitored and recorded (Ethovision 3.0; Noldus Information Technology) for 2.5 min in the absence (target absent phase) of a novel CD-1 mouse and followed by 2.5 min exploratory behavior in the presence of a caged CD-1 mouse (target present phase). SI behavior was then calculated as a ratio of the time spent in the interaction zone with the target present divided by the time spent in the interaction zone with the target absent. […]
Mice were given access to a two-bottle choice of water or 1% sucrose solution and the consumption of each solution was recorded once every 24 h for 48 or 72 h. […] Sucrose preference was calculated as a percentage of sucrose consumption over total liquid consumption. […]

Q: What does the source list for O=C(O)CCc1ccc(O)c(O)c1 [DHCA, 3(3,4-dihydroxy-phenyl) propionic acid]?
A: IC50 [1]: > 25 µM; half-life ([2]; mouse, plasma): 44.1 min; half-life ([3]; mouse): 16.1 min; Binding activity, 5-HT1A (percentage) [4]: 3.3%; Binding activity, 5-HT2A (percentage) [5]: 18%; Binding activity, 5-HT6 (percentage) [6]: 24.2%; Binding activity, 5-HT7 (percentage) [7]: 4.2%; Binding activity, Alpha1B (percentage) [8]: 11.1%; Binding activity, Alpha2C (percentage) [9]: 27.3%; Binding activity, D1 (percentage) [10]: −3.7%; Binding activity, D5 (percentage) [11]: 5.1%; Binding activity, NET (percentage) [12]: −16.4%; anhedonia (sucrose preference), single compound treatment [13]: neither treatment significantly promoted resilience (Supplementary Fig. 7a) or alleviate anhedonia; resilience (SI), single compound treatment [13]: neither treatment significantly promoted resilience

Q: For COc1cc(-c2[o+]c3cc(O)cc(O)c3cc2O[C@@H]2O[C@H](CO)[C@@H](O)[C@H](O)[C@H]2O)cc(OC)c1O [Mal-gluc], which IC50 [1] is on record?
A: > 25 µM

Q: What about the “Plasma stability, Half-life (mouse plasma)” value [2] of the same molecule?
A: 201 min

Q: And the “Brain homogenate stability, Half-life (mouse homogenate)” value [3]?
A: 29.4 min

Q: And the “Binding activity, 5-HT1A (percentage)” value [4]?
A: 8.6%

Q: What about the “Binding activity, 5-HT2A (percentage)” value [5] of the same molecule?
A: −10.5%

Q: What about the “Binding activity, 5-HT6 (percentage)” value [6] of the same molecule?
A: −18.5%

Q: And the “Binding activity, 5-HT7 (percentage)” value [7]?
A: −13.5%

Q: And the “Binding activity, Alpha1B (percentage)” value [8]?
A: 24.4%

Q: And the “Binding activity, Alpha2C (percentage)” value [9]?
A: −11%

Q: And the “Binding activity, D1 (percentage)” value [10]?
A: −10.3%

Q: What about the “Binding activity, D5 (percentage)” value [11] of the same molecule?
A: −2%

Q: What about the “Binding activity, NET (percentage)” value [12] of the same molecule?
A: −9.4%

Q: What about the “anhedonia (sucrose preference), single compound treatment” value [13] of the same molecule?
A: neither treatment significantly promoted resilience (Supplementary Fig. 7a) or alleviate anhedonia

Q: What about the “resilience (SI), single compound treatment” value [13] of the same molecule?
A: neither treatment significantly promoted resilience
